Experimental data taken from patent publication US10328075B2, “Method of treatment and compounds for use therein” (Baker Heart and Diabetes Institute, priority 2015, dated 2019).

Experiments:
Format in all cases: cell-based
hFPR1 [1] = target: T1, hFPR1 (Homo sapiens, UniProt P21462); assay: Akt (Thr308) phosphorylation in hFPR1-FlpIn-CHO cells
T1 construct: expressed in transfected cells
T1 sequence (P21462 1-350): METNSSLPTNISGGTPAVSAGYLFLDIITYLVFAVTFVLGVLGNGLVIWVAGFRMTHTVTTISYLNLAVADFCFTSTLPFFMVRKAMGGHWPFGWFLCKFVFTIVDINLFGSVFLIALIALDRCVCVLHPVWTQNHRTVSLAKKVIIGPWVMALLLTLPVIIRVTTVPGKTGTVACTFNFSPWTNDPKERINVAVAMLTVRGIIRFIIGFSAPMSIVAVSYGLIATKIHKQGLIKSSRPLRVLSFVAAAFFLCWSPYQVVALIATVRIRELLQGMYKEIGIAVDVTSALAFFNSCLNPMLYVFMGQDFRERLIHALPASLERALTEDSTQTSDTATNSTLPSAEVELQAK
From the text: (§1) cDNDA construct and generation of stable cell lines: cDNA in pcDNA3.1^+ encoding the human formyl peptide receptors (FPR) subtypes, hFPR1, hFPR2 and hFPR3 was obtained from Invitrogen. The sequences for 3 hFPR receptors were amplified by PCR and cloned into the Gateway entry vector, pDONR202™, using the BP clonase enzyme mix, according to the manufactures' instructions (Invitrogen Inc, Carlsbad, Calif., USA). All hFPR receptors constructs in pDONR201™ were subsequently transfected into the pEF5/FRT/V5/dest vector using the LR clonase enzyme mix (Invitrogen). Receptor constructs (pEF5/FRT/V5/dest) were used to transfect FIp-In CHO cells as described previously (Valant C et al., PNAS, 2014). Cells were selected using 500 μg/mL hydromycin to generate cell lines stably expressing each receptor construct. Cells were maintained and cultured in high glucose DMEM supplemented with 10% FBS, 16 mM HEPES and 500 μg/mL hydromycin at 37° C. under a humidified atmosphere containing 5% CO2.
(§2) In the various assays described below, cells were plated into 96-well transparent cell culture plates at 4×10^4 cells per well, cultured overnight in serum-free media at 37° C. in 5% CO2.
(§3) Measurement of Akt1/2/3 phosphorylation and Akt 1: The same lysate was used for measurement of Akt1/2/3 phosphorylation (Ser473) and Akt1 (Thr308). Cells were lysed in SureFire lysis buffer and transferred to 384-well opaque proxiplates. Under low-light conditions, a 1:10:40 (v:v:v) dilution of AlphaScreen acceptor beads:Surefire activation buffer:Surefire reaction buffer was prepared and the plate was incubated in the dark at RT for 2 h. Then, a 1:20 (v:v) dilution of AlphaScreen donor beads/dilution was prepared and incubated in the dark at RT for another 2 h, before the fluorescence signal was measured by used of a Fusion-α plate reader (PerkinElmer Life and Analytical Sciences) with standard AlphaScreen settings. Receptor mediated phosphorylation of Akt1/2/3 (Ser473) and Akt1 (Thr308) were determined using the AlphaScreen™ […] SureFire™ kit, as per as per manufacturer's instructions. Data were normalized to the maximal response elicited by 10% (v:v) FBS at the same time point.
(§4) Data analysis: All data were analysed using GraphPad Prism 6.0 (GraphPad Software, San Deigo, Calif., USA). Where appropriate, concentration-response curves were fitted to derive the maximal agonist effect (Emax), and the ligand potency estimate (pEC50), where Emax is the maximal possible response of the system (not the agonist), basal is the basal level of response in the absence of agonist, and pEC50 is the negative logarithm of the agonist concentration that gives a response halfway between Emax and basal.
(§5) In the present study, FIp-IN CHO cells and Gateway plasmid were obtained from Invitrogen Inc (Carlsbad, Calif., USA). The sequences for all 3 known human FPRs (hFPR1, hFPR2 and hFPR3) were amplified by PCR and cloned into the Gateway entry vector, pDONR202TM, using the BP clonase enzyme mix, according to the manufacturers' instructions. The hFPR pDONR201TM constructs were subsequently transfected into the pEF5/FRT/V5/dest vector using the LR clonase enzyme mix (Invitrogen). Receptor constructs (pEF5/FRT/V5/dest) were used to transfect FIp-IN CHO cells, as described previously (Valant et al. 2014). Cells were selected using 500 μg/mL hydromycin to generate cell lines stably expressing each human receptor construct. Cells were maintained and cultured in high glucose Dulbecco's modified eagle medium (DMEM) supplemented with 10% fetal bovine serum (FBS, from JRH Biosciences, Lenexa, Kans., USA) and 500 μg/mL hydromycin B (Invitrogen Inc) at 37° C. under a humidified atmosphere containing 5% CO2. Cell were plated into 96-well transparent cell culture plates at 4×10^4 cells per well, cultured overnight in serum-free media at 37° C. in 5% CO2.

hFPR1 [2] = target: T1, hFPR1; assay: Akt1/2/3 (Ser473) phosphorylation in hFPR1-FlpIn-CHO cells
From the text: as §1, §2, §3, §4, §5

hFPR1 [3] = target: T1, hFPR1; assay: Inhibition of forskolin-stimulated cAMP accumulation in hFPR1-FlpIn-CHO cells; conditions: for Concentration-response profile on forskolin-stimulated cAMP accumulation at hFPR1: in words
From the text: as §1, §2
cAMP Accumulation: CHO-hFPR1, -hFPR2 and -hFPR3 stable transfected cells were plated into 96-well plates and cultured overnight at 37° C. in 5% CO2. Cells were washed with PBS, and cultured overnight. […] Cells were lysed in detection buffer (dH2O, 0.3% Tween 20, 5 mM HEPES, 0.1% BSA). Lysates were transferred to a 384-well plate and mixtures of detection buffer/donor bead-conjugated anti-cAMP antibody and detection buffer: biotinylated cAMP: acceptor bead-conjugated streptavidin were added to the lysates according to the PerkinElmer cAMP Alphascreen protocol. Under low-light conditions, a 1:50 (v:v) dilution of AlphaScreen acceptor beads: stimulation buffer was prepared, 1:150 (v:v) dilution of donor beads and 50 nM biotinylated cAMP in detection buffer was prepared in a 384-well opaque optiplates. Plates were incubated in the dark at room temperature overnight before the fluorescence signal was measured by use of a Fusion-α plate reader (PerkinElmer Life and Analytical Sciences). Data were normalized to the response elicited by 10 μM forskolin at the same time point.
as §4, §5

[4] = Table 8, normalized transduction coefficient, reference agonist Cmpd43
[5] = Table 8, transduction coefficient

With `CC(C)C1C(NC(=O)Nc2ccc(Cl)cc2)C(=O)N(c2ccccc2)N1C` (centres unmarked) [BIDI-002] the Emax (hFPR1 [1]; Table 3, percentage of Akt1/2/3 phosphorylation elicited by 10% FBS, read-out: Emax (%), Akt 1 (Thr308) phosphorylation, hFPR1-Flpln-CHO) was 15 ± 4%, the EC50 (hFPR1 [1]; Table 3, read-out: pEC50, Akt 1 (Thr308) phosphorylation, hFPR1-Flpln-CHO (converted)) was 0.129 µM and the “ΔLog(τ/KA), Akt 1/2/3 (Thr308) phosphorylation, hFPR1-Flpln-CHO” value (hFPR1 [1]; [4]) was 0.0. For the same compound, the Emax (hFPR1 [1]; Table 8, percent of response elicited by 10% FBS, read-out: Emax, Akt 1/2/3 (Thr308) phosphorylation, hFPR1-Flpln-CHO) was 15 ± 4%, the EC50 (hFPR1 [1]; Table 8, read-out: pEC50, Akt 1/2/3 (Thr308) phosphorylation, hFPR1-Flpln-CHO (converted)) was 0.126 µM and the “Log(τ/KA), Akt 1/2/3 (Thr308) phosphorylation, hFPR1-Flpln-CHO” value (hFPR1 [1]; [5]) was 6.9 ± 0.3. The Emax (hFPR1 [2]; Table 3, percentage of Akt1/2/3 phosphorylation elicited by 10% FBS, read-out: Emax (%), Akt 1/2/3 (Ser473), hFPR1-Flpln-CHO) was 13 ± 3%, the EC50 (hFPR1 [2]; Table 3, read-out: pEC50, Akt 1/2/3 (Ser473), hFPR1-Flpln-CHO (converted)) was 0.0871 µM and the “ΔLog(τ/KA), Akt 1/2/3 (Ser473) phosphorylation, hFPR1-Flpln-CHO” value (hFPR1 [2]; [4]) was 0.0. For the same compound, the Emax (hFPR1 [2]; Table 8, percent of response elicited by 10% FBS, read-out: Emax, Akt 1/2/3 (Ser473) phosphorylation, hFPR1-Flpln-CHO) was 13 ± 3%, the EC50 (hFPR1 [2]; Table 8, read-out: pEC50, Akt 1/2/3 (Ser473) phosphorylation, hFPR1-Flpln-CHO (converted)) was 0.0794 µM and the “Log(τ/KA), Akt 1/2/3 (Ser473) phosphorylation, hFPR1-Flpln-CHO” value (hFPR1 [2]; [5]) was 6.9 ± 0.3. The Emax (hFPR1 [3]; Table 4, percentage inhibition of forskolin-stimulated cAMP accumulation, read-out: Emax (%), inhibition to cAMP accumulation, hFPR1-Flpln-CHO) was 27 ± 20%, the EC50 (hFPR1 [3]; Table 4, read-out: pEC50, inhibition to cAMP accumulation, hFPR1-Flpln-CHO (converted)) was 0.0741 µM and the “ΔLog(τ/KA), inhibition of cAMP accumulation, hFPR1-Flpln-CHO” value (hFPR1 [3]; [4]) was 0.0. For the same compound, the Emax (hFPR1 [3]; Table 8, percent inhibition of forskolin-induced cAMP accumulation, read-out: Emax, inhibition of cAMP accumulation, hFPR1-Flpln-CHO) was 27 ± 20%, the EC50 (hFPR1 [3]; Table 8, read-out: pEC50, inhibition of cAMP accumulation, hFPR1-Flpln-CHO (converted)) was 0.0794 µM and the “Log(τ/KA), inhibition of cAMP accumulation, hFPR1-Flpln-CHO” value (hFPR1 [3]; [5]) was 7.1 ± 0.3. For the same compound, the “Concentration-response profile on forskolin-stimulated cAMP accumulation at hFPR1” value (hFPR1 [3]) was “bell-shaped curves” and the “Concentration-response profile on forskolin-stimulated cAMP accumulation at hFPR1” value (hFPR1 [3]; listed as Cmpd43) was “bi-phasic curve”.
